Tests used:
[1] = tested on: normal primary NK cells, pool 1 (3 donors) (IL-2 2.5 ng/mL); test: percent inhibition of viability; higher = more inhibition; details: 72 h
[2] = tested on: DERL-7 (IL-2 2.5 ng/mL); test: as above; details: 72 h
[3] = tested on: KHYG-1 (IL-2 2.5 ng/mL); test: as above; details: 72 h
[4] = tested on: normal primary NK cells, pool 2 (3 donors) (IL-2 2.5 ng/mL); test: as above; details: 72 h
[5] = tested on: IMC-1 (IL-2 20 ng/mL); test: as above; details: 72 h
[6] = tested on: NK-YS (IL-2 2.5 ng/mL); test: as above; details: 72 h
[7] = tested on: KAI3 (IL-2 2.5 ng/mL); test: as above; details: 72 h
[8] = tested on: SNK-6 (IL-2 2.5 ng/mL); test: as above; details: 72 h
[9] = tested on: normal primary NK cells, pool 1 (3 donors), resting (IL-2 0 ng/mL); test: as above; details: 72 h
[10] = tested on: YT (IL-2 2.5 ng/mL); test: as above; details: 72 h
[11] = tested on: normal primary NK cells, pool 3 (3 donors) (IL-2 2.5 ng/mL); test: as above; details: 72 h
[12] = tested on: NK-92 (IL-2 2.5 ng/mL); test: as above; details: 72 h
[13] = tested on: NKL (IL-2 2.5 ng/mL); test: as above; details: 72 h
[14] = tested on: normal NK cells expanded with K562-aAPC; test: drug sensitivity score (DSS) (DSS units); higher = more sensitive; extreme values may be limits of the assay; details: 72 h; IL-2 2.5 ng/mL
Procedure: (§1)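 Drug sensitivity and resistance testing on K562-aAPC-expanded normal NK cells: 5 concentrations (10-fold steps over a 10,000-fold range), 72 h at 37 °C, viability by CellTiter-Glo normalised to DMSO and benzethonium chloride controls; DSS from the fitted curve.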

[15] = tested on: normal NK cells expanded with K562-aAPC; test: percent inhibition of viability; higher = more inhibition; details: 72 h, IL-2 2.5 ng/mL
Procedure: as §1

[16] = tested on: normal primary NK cells, pool 1 (3 donors) (IL-2 2.5 ng/mL); test: drug sensitivity score (DSS) (DSS units); higher = more sensitive; extreme values may be limits of the assay; details: 72 h
[17] = tested on: DERL-7 (IL-2 2.5 ng/mL); test: as above; details: 72 h
[18] = tested on: KHYG-1 (IL-2 2.5 ng/mL); test: as above; details: 72 h
[19] = tested on: normal primary NK cells, pool 2 (3 donors) (IL-2 2.5 ng/mL); test: as above; details: 72 h
[20] = tested on: IMC-1 (IL-2 20 ng/mL); test: as above; details: 72 h
[21] = tested on: NK-YS (IL-2 2.5 ng/mL); test: as above; details: 72 h
[22] = tested on: KAI3 (IL-2 2.5 ng/mL); test: as above; details: 72 h
[23] = tested on: SNK-6 (IL-2 2.5 ng/mL); test: as above; details: 72 h
[24] = tested on: normal primary NK cells, pool 1 (3 donors), resting (IL-2 0 ng/mL); test: as above; details: 72 h
[25] = tested on: YT (IL-2 2.5 ng/mL); test: as above; details: 72 h
[26] = tested on: normal primary NK cells, pool 3 (3 donors) (IL-2 2.5 ng/mL); test: as above; details: 72 h
[27] = tested on: NK-92 (IL-2 2.5 ng/mL); test: as above; details: 72 h
[28] = tested on: NKL (IL-2 2.5 ng/mL); test: as above; details: 72 h
[29] = tested on: IMC-1 (IL-2 20 ng/mL); test: relative IC50 (inflection point of fitted viability curve, relative to fitted max inhibition); higher = less sensitive; details: 72 h
Procedure: (§2)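 Drug sensitivity and resistance testing: 5 concentrations over a 10,000-fold range, 72 h at 37 °C, viability by CellTiter-Glo normalised to DMSO and benzethonium chloride controls. IC50 is the inflection point of a logistic fit (min fixed at 0, max fitted), so it is relative to the fitted maximal inhibition. Kept only where fitted max inhibition is at least 50%.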

[30] = tested on: NK-92 (IL-2 2.5 ng/mL); test: as above; details: 72 h
Procedure: as §2

COc1ccc(S(=O)(=O)Nc2cccnc2Nc2ccc(O)cc2)cc1 [ABT-751] (max concentration tested 10000 nM)
percent inhibition of viability [%]
Details	1 nM	10 nM	100 nM	1000 nM	10000 nM
[1]	-9.52	-12.6	-7.29	0.64	11.6
[2]	5.8	5.64	3.05	99.1	99
[3]	-0.83	2.36	14.9	104	104
[4]	0.28	3.85	0.94	8.44	14.7
[5]	1.24	2.22	4.35	99.6	99.6
[6]	-0.79	0.15	23.9	70.5	71.2
[7]	7.18	10.3	18.4	62.9	74.9
[8]	3.22	10.5	50.7	81.7	89.2
[9]	1.2	-5.61	-12	16.9	49.5
[10]	3.24	3.8	13.6	100	96.2
[11]	4.41	1.96	4.78	13.2	16.7
[12]	4.6	3.35	37.3	92.8	91.3
[13]	-0.28	-14.8	-13.9	90.3	83.4
[15]	2.34	4.2	3.33	57.7	58.5

Details	drug sensitivity score
[14]	11.1
[16]	0.04
[17]	18.2
[18]	20.6
[19]	0.52
[20]	18.5
[21]	16.3
[22]	13.8
[23]	21.9
[24]	5.02
[25]	20.3
[26]	1.19
[27]	21.4
[28]	15.4

Cc1cc(Nc2cc(N3CCN(C)CC3)nc(Sc3ccc(NC(=O)C4CC4)cc3)n2)n[nH]1 [Tozasertib] (max concentration tested 10000 nM)
percent inhibition of viability [%]
Details	1 nM	10 nM	100 nM	1000 nM	10000 nM
[1]	-7.78	-12.4	-6.71	5.08	43.4
[2]	3.54	-3.04	72.5	62	82
[3]	-4.48	2.48	32.5	67.5	85.3
[4]	-9.84	-5.4	-5.23	-0.34	41.1
[5]	-4.29	1.42	24	78	98
[6]	-6.33	0.35	56.9	67.3	60.3
[7]	-4.42	3.12	20.6	48.2	71.8
[8]	-3.9	3.63	58.1	74.3	61.7
[9]	2.84	-2.46	-18	-4.6	15.2
[10]	-3.46	-2.16	13.1	25.8	47.4
[11]	-7.32	-4.94	0.04	-0.07	19.2
[12]	-7.92	-11.5	9.53	52.9	83.8
[13]	-9.16	-8.33	-3.2	4.79	34.7
[15]	-7.6	-9.83	27.1	35.3	38.2

Details	drug sensitivity score
[14]	9.96
[16]	3.05
[17]	23.6
[18]	16.6
[19]	2.02
[20]	17.4
[21]	19.2
[22]	11.6
[23]	20.9
[24]	0.14
[25]	5.97
[26]	0.53
[27]	11.4
[28]	2.42

Cc1c(C(=O)Nc2ccc(N3C[C@@H](C)O[C@@H](C)C3)nc2)cccc1-c1ccc(OC(F)(F)F)cc1 [Sonidegib]
Details	relative IC50 [µM]
[29]	2.25
[30]	1.15

From the supplement of paper PMC5908809
